# Source: ChEMBL document CHEMBL1165867, “Synthesis, structure and structure-activity relationship analysis of caffeic acid amides as potential antimicrobials” (2010)
# Assays:
# Assay in all cases: microbe, parasite or virus in culture
# Type in all cases: functional
# [1] = system: Staphylococcus aureus; conditions: ATCC 6538, 24 h
# Description: Antibacterial activity against Staphylococcus aureus ATCC 6538 after 24 hrs by MTT assay
# [2] = system: Aspergillus niger; conditions: ATCC 16404, 48 h
# Description: Antifungal activity against Aspergillus niger ATCC 16404 after 48 hrs by MTT assay
# [3] = system: Escherichia coli; conditions: ATCC 35218, 24 h
# Description: Antibacterial activity against Escherichia coli ATCC 35218 after 24 hrs by MTT assay
# [4] = system: Candida albicans; conditions: ATCC 10231, 48 h
# Description: Antifungal activity against Candida albicans ATCC 10231 after 48 hrs by MTT assay
# [5] = system: Pseudomonas fluorescens; conditions: ATCC 13525, 24 h
# Description: Antibacterial activity against Pseudomonas fluorescens ATCC 13525 after 24 hrs by MTT assay
# [6] = system: Bacillus subtilis; conditions: ATCC 6633, 24 h
# Description: Antibacterial activity against Bacillus subtilis ATCC 6633 after 24 hrs by MTT assay
# [7] = system: Trichophyton rubrum; conditions: ATCC 10218, 48 h
# Description: Antifungal activity against Trichophyton rubrum ATCC 10218 after 48 hrs by MTT assay
Compound,MIC [1],MIC [2],MIC [3],MIC [4],MIC [5],MIC [6],MIC [7]
O=C(/C=C/c1ccc(O)c(O)c1)Nc1ccc(F)cc1,> 50 µg/mL,> 50 µg/mL,> 50 µg/mL,> 50 µg/mL,> 50 µg/mL,7.95 µg/mL,> 50 µg/mL
COc1cccc(NC(=O)/C=C/c2ccc(O)c(O)c2)c1,> 50 µg/mL,–,–,44.7 µg/mL,> 50 µg/mL,50 µg/mL,–
COc1ccc(NC(=O)/C=C/c2ccc(O)c(O)c2)cc1,50 µg/mL,> 50 µg/mL,> 50 µg/mL,42.8 µg/mL,> 50 µg/mL,3.12 µg/mL,> 50 µg/mL
CCNC(=O)/C=C/c1ccc(O)cc1,45.4 µg/mL,–,–,50 µg/mL,> 50 µg/mL,> 50 µg/mL,–
O=C(/C=C/c1ccc(O)c(O)c1)Nc1cccc([N+](=O)[O-])c1,> 50 µg/mL,–,–,> 50 µg/mL,> 50 µg/mL,> 50 µg/mL,–
O=C(/C=C/c1ccc(O)c(O)c1)Nc1ccc([N+](=O)[O-])cc1,> 50 µg/mL,> 50 µg/mL,> 50 µg/mL,49.4 µg/mL,> 50 µg/mL,15.5 µg/mL,> 50 µg/mL
O=C(/C=C/c1ccc(O)c(O)c1)N(c1ccccc1)c1ccccc1,> 50 µg/mL,–,–,> 50 µg/mL,> 50 µg/mL,> 50 µg/mL,–
O=C(/C=C/c1ccc(O)c(O)c1)Nc1ccccc1[N+](=O)[O-],> 50 µg/mL,–,–,> 50 µg/mL,> 50 µg/mL,> 50 µg/mL,–
O=C(/C=C/c1ccc(O)c(O)c1)Nc1ccccc1Cl,> 50 µg/mL,–,–,42.8 µg/mL,41.2 µg/mL,45.8 µg/mL,–
O=C(/C=C/c1ccc(O)c(O)c1)Nc1ccccc1Br,> 50 µg/mL,–,–,27.5 µg/mL,42.2 µg/mL,49.5 µg/mL,–
O=C(/C=C/c1ccc(O)c(O)c1)Nc1cccc(F)c1,> 50 µg/mL,–,–,> 50 µg/mL,> 50 µg/mL,46.7 µg/mL,–
O=C(/C=C/c1ccc(O)c(O)c1)Nc1cccc(Cl)c1,49.2 µg/mL,–,–,> 50 µg/mL,> 50 µg/mL,50 µg/mL,–
O=C(/C=C/c1ccc(O)c(O)c1)Nc1cccc(Br)c1,> 50 µg/mL,–,–,> 50 µg/mL,> 50 µg/mL,50 µg/mL,–
Cc1ccc(NC(=O)/C=C/c2ccc(O)c(O)c2)cc1,> 50 µg/mL,> 50 µg/mL,> 50 µg/mL,> 50 µg/mL,42.2 µg/mL,1.18 µg/mL,> 50 µg/mL
O=C(/C=C/c1ccc(O)c(O)c1)Nc1ccc(Cl)cc1,46.8 µg/mL,> 50 µg/mL,> 50 µg/mL,> 50 µg/mL,50 µg/mL,6.25 µg/mL,> 50 µg/mL
O=C(/C=C/c1ccc(O)c(O)c1)Nc1ccc(Br)cc1,> 50 µg/mL,> 50 µg/mL,> 50 µg/mL,> 50 µg/mL,50 µg/mL,3.89 µg/mL,> 50 µg/mL
Cc1ccccc1NC(=O)/C=C/c1ccc(O)c(O)c1,> 50 µg/mL,–,–,> 50 µg/mL,42.5 µg/mL,35 µg/mL,–
Cc1cccc(NC(=O)/C=C/c2ccc(O)c(O)c2)c1,45.6 µg/mL,–,–,> 50 µg/mL,38.8 µg/mL,40.2 µg/mL,–
O=C(/C=C/c1ccc(O)c(O)c1)Nc1ccccc1F,> 50 µg/mL,–,–,33.3 µg/mL,> 50 µg/mL,50 µg/mL,–
COc1ccccc1NC(=O)/C=C/c1ccc(O)c(O)c1,47.4 µg/mL,–,–,> 50 µg/mL,13.2 µg/mL,39.8 µg/mL,–
CN(C(=O)/C=C/c1ccc(O)c(O)c1)c1ccccc1,> 50 µg/mL,–,–,> 50 µg/mL,> 50 µg/mL,> 50 µg/mL,–
O=C(/C=C/c1ccc(O)c(O)c1)Nc1ccccc1,41.5 µg/mL,–,–,50 µg/mL,> 50 µg/mL,28.4 µg/mL,–
CCNC(=O)/C=C/c1ccc(O)c(O)c1,> 50 µg/mL,–,–,> 50 µg/mL,> 50 µg/mL,> 50 µg/mL,–
CCN(CC)C(=O)/C=C/c1ccc(O)c(O)c1,> 50 µg/mL,–,–,> 50 µg/mL,> 50 µg/mL,> 50 µg/mL,–
O=C(O)/C=C/c1ccc(O)c(O)c1 [CAFFEIC ACID],> 50 µg/mL,–,–,> 50 µg/mL,> 50 µg/mL,> 50 µg/mL,–
O=C(O)/C=C/c1ccc(O)cc1 [COUMARIC ACID],> 50 µg/mL,–,–,> 50 µg/mL,> 50 µg/mL,> 50 µg/mL,–
NC[C@H]1O[C@H](O[C@H]2[C@H](O)[C@@H](O[C@H]3O[C@H](CO)[C@@H](O)[C@H](N)[C@H]3O)[C@H](N)C[C@@H]2N)[C@H](O)[C@@H](O)[C@@H]1O [KANAMYCIN],1.28 µg/mL,–,–,–,5.08 µg/mL,0.39 µg/mL,–
CC1(C)S[C@@H]2[C@H](NC(=O)Cc3ccccc3)C(=O)N2[C@H]1C(=O)O [PENICILLIN G],1.39 µg/mL,–,–,–,–,0.78 µg/mL,–
